According to patent publication US7018981B2, “Cyclic motilin receptor antagonists” (Chugai Seiyaku Kabushiki Kaisha, priority 2000, dated 2006):
pIC50: −log10 of the molar value. Where a SMILES comes first, the peptide text is derived from it. Bridges are numbered along the chain shown (N, C = ends). [ ]: non-standard residue; d: D form. NMeTyr(3-tBu) = CN[C@@H](Cc1ccc(O)c(C(C)(C)C)c1)C(=O)O; Tyr(3-tBu) = CC(C)(C)c1cc(C[CH](N)C(=O)O)ccc1O; Phe(4-F) = N[C@@H](Cc1ccc(F)cc1)C(=O)O; NMeLys(Me) = CNCCCC[C@H](NC)C(=O)O; NMeK = CN[C@@H](CCCCN)C(=O)O; GABA = NCCCC(=O)O; βAla = NCCC(=O)O

Legend:
[1] = test system: motilin-induced contraction of a sample of the longitudinal muscle of the duodenum; assay: Contraction inhibition test: motilin-induced contraction of rabbit longitudinal duodenal muscle; type: cell-based; conditions: Oryctolagus cuniculus; concentration-dependent contraction induced by motilin; rabbit duodenal specimen in Krebs solution at 28° C.; read-out: Contraction inhibition test pA2 (converted)
Description: The effect of compounds of the present invention on motilin-induced contraction of a sample of the longitudinal muscle of the duodenum extracted from a rabbit was tested as follows.
A duodenal specimen (5×15 mm) extracted from a killed rabbit was suspended in the direction of the longitudinal muscle in an incubator at 28° C. filled with Krebs solution (10 ml organ bath). A mixed gas (95% O2, 5% CO2) was continuously passed through the Krebs solution and the contraction of the duodenal specimen was isotonically recorded (under a load of 1 g) via an isotonic transducer (ME-3407, ME Commercial, Tokyo, Japan). The extent of contraction of the duodenal specimen was expressed as a percentage to the contraction induced by acetylcholine at a concentration of 10^−4 M.
The effect of the compounds synthesized in Examples 1–8 and 10 on the concentration-dependent contraction induced by motilin added into the incubator was determined to calculate pA2 (see “Drug receptors” edited by Takayanagi, published by Nanzando). As a comparative example, the results of the compound of formula (5) are also shown.

motilin receptors = biological target: T1, motilin receptors (Oryctolagus cuniculus, UniProt G1T803); assay: Motilin receptor binding test (125I motilin, rabbit duodenum protein solution); conditions: concentration inhibiting 50% of specific binding of 25 pM 125I motilin; rabbit duodenum homogenate, 2 hours at 25° C.
T1 construct: A protein solution was prepared by homogenizing the duodenum isolated from a killed rabbit; from tissue; host or cells: rabbit duodenum, mucosa stripped, homogenate
Description: Motilin receptor binding activities of compounds of the present invention were tested as follows [Vantrappen et al., Regul.
A protein solution was prepared by homogenizing the duodenum isolated from a killed rabbit in 50 mM Tris after stripping the mucosa. […] The difference between the radioactivity of the protein solution incubated alone and the radioactivity of the protein solution incubated with a large excess of motilin (10^−7 M) was recorded as specific binding of motilin to motilin receptors.

T1 sequence (G1T803 1-400): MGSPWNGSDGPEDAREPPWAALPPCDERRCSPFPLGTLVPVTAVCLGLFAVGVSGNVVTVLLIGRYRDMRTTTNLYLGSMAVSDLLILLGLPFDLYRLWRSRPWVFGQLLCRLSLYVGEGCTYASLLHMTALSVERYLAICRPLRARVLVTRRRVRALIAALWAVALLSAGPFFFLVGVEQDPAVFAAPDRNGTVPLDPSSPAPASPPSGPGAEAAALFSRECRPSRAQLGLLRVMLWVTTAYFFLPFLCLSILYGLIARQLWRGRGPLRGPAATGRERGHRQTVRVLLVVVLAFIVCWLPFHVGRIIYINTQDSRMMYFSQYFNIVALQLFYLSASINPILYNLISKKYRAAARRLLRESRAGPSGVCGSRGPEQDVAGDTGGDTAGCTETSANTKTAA

## CN(C(=O)[C@@H](N)Cc1ccccc1)[C@H]1CCCCNC(=O)CCNC(=O)[C@H](Cc2ccc(O)c(C(C)(C)C)c2)NC1=O [Example 10, (2S-(2S,13S))-2-amino-N-(2-(3-tert-butyl-4-hydroxyphenylmethyl)-1,4,8-triaza-3,7,14-trioxocyclotetradec-13-yl)-3-phenyl-N-methylpropionamide] (H-F[NMeK][Tyr(3-tBu)][βAla]; lactam 2-C)
[1]
  Kb: 12.6 nM
Motilin receptors
  pIC50: 8.66

## CC(C)(C)c1cc(CC2NC(=O)C(NC(=O)C(N)Cc3ccccc3)CCCCNC(=O)CCNC2=O)ccc1O (stereo not drawn) [Comparative example, reference compound] (H-FK[Tyr(3-tBu)][βAla]; lactam 2-C; configuration not given here)
[1]
  Kb: 63.1 nM
Motilin receptors
  pIC50: 8.00

## CC(C)(C)c1cc(C[C@@H]2NC(=O)[C@@H](NC(=O)[C@@H](N)Cc3ccc(F)cc3)CCCCNC(=O)CCNC2=O)ccc1O [Example 7, (2S,14S)-13-(2S-2-amino-3-(4-fluorophenyl)propylamino)-2-(3-tert-butyl-4-hydroxyphenylmethyl)-1,4,8-triaza-3,7,14-trioxocyclotetradecane] (H-[Phe(4-F)]K[Tyr(3-tBu)][βAla]; lactam 2-C)
[1]
  Kb: 10 nM
Motilin receptors
  pIC50: 8.35

## CN(C(=O)[C@@H](N)Cc1ccc(F)cc1)[C@H]1CCCCNC(=O)CNC(=O)[C@H](Cc2ccc(O)c(C(C)(C)C)c2)NC1=O [Example 3, (2S-(2S,12S))-2-amino-N-(2-(3-tert-butyl-4-hydroxyphenylmethyl)-1,4,8-triaza-3,7,13-trioxocyclotridec-12-yl)-3-(4-fluorophenyl)-N-methylpropionamide] (H-[Phe(4-F)][NMeK][Tyr(3-tBu)]G; lactam 2-C)
[1]
  Kb: 6.31 nM
Motilin receptors
  pIC50: 9.28

## CN(C(=O)[C@@H](N)Cc1ccc(F)cc1)[C@H]1CCCCNC(=O)CCNC(=O)[C@H](Cc2ccc(O)c(C(C)(C)C)c2)N(C)C1=O [Example 2, (2S-(2S.13S))-2-amino-N-(2-(3-tert-butyl-4-hydroxyphenylmethyl)-1-methyl-1,4,8-triaza-3,7,14-trioxocyclotetradec-13-yl)-3-(4-fluorophenyl)-N-methylpropionamide] (H-[Phe(4-F)][NMeK][NMeTyr(3-tBu)][βAla]; lactam 2-C)
[1]
  Kb: 1.26 nM
Motilin receptors
  pIC50: 8.85

## CN(C(=O)[C@@H](N)Cc1ccc(F)cc1)[C@H]1CCCCNC(=O)CCCNC(=O)[C@H](Cc2ccc(O)c(C(C)(C)C)c2)NC1=O [Example 6, (2S-(2S,14S))-2-amino-N-(2-(3-tert-butyl-4-hydroxyphenylmethyl)-1,4,9-triaza-3,8,15-trioxocyclopentadec-14-yl)-3-(4-fluorophenyl)-N-methylpropionamide] (H-[Phe(4-F)][NMeK][Tyr(3-tBu)][GABA]; lactam 2-C)
[1]
  Kb: 3.16 nM
Motilin receptors
  pIC50: 9.06

## CC(=O)N1CCCC[C@H](N(C)C(=O)[C@@H](N)Cc2ccc(F)cc2)C(=O)N[C@@H](Cc2ccc(O)c(C(C)(C)C)c2)C(=O)NCCC1 [Example 8, (2S-(2S.13S))-N-(8-acetyl-2-(3-tert-butyl-4-hydroxyphenylmethyl)-N-methyl-1,4,8-triaza-3,14-dioxocyclotetradec-13-yl)-2-amino-3-(4-fluorophenyl)propionamide]
[1]
  Kb: 6.31 nM
Motilin receptors
  pIC50: 9.08

## CN1CCC(=O)NCCCC[C@H](N(C)C(=O)[C@@H](N)Cc2ccc(F)cc2)C(=O)N[C@@H](Cc2ccc(O)c(C(C)(C)C)c2)C1=O [Example 4, (2S-(2S,13S))-2-amino-N-(2-(3-tert-butyl-4-hydroxyphenylmethyl)-4-methyl-1,4,8-triaza-3,7,14-trioxocyclotetradec-13-yl)-3-(4-fluorophenyl)-N-methylpropionamide]
[1]
  Kb: 1 nM
Motilin receptors
  pIC50: 9.11

## CN1CCCC[C@H](N(C)C(=O)[C@@H](N)Cc2ccc(F)cc2)C(=O)N[C@@H](Cc2ccc(O)c(C(C)(C)C)c2)C(=O)NCCC1=O [Example 5, (2S-(2S,13S))-2-amino-N-(2-(3-tert-butyl-4-hydroxyphenylmethyl)-8-methyl-1,4,8-triaza-3,7,14-trioxocyclotetradec-13-yl)-3-(4-fluorophenyl)-N-methylpropionamide] (H-[Phe(4-F)][NMeLys(Me)][Tyr(3-tBu)][βAla]; lactam 2-C)
[1]
  Kb: 0.126 nM
Motilin receptors
  pIC50: 8.85
